Data on five compounds can be found in ChEMBL document CHEMBL1122594, “Parasite enzymes as potential targets for antiparasitic chemotherapy” (J Med Chem, 1984).

Assay [1] is described as follows: (§1) Enzymatic activity was determined.
Another assay is filed under the species Gallus gallus. Briefly: Anticoccidial activity against toxoplasmosis in chicken; no activity. The class given is functional, organism-based.
A short description of assay [2]: Anticoccidial activity against toxoplasmosis in cattle; no activity. The class given is functional.
Assay [3] can be described thus: as §1. This is another data set of the same source.

Active and inactive are the calls of the source. The calls are words filed in the database; no cut-off is given here.

By Ki is commonly meant a measure of affinity in units of concentration, obtained from inhibition or displacement. The low end stands for a stronger hold on the target, the high end for a looser hold on the target. `Nc1ccc(S(=O)(=O)Nc2nccs2)cc1` [SULFATHIAZOLE] yielded a Ki in assay [1] of 14 µM.
On to `CCCc1ncc(C[n+]2ccccc2C)c(N)n1`, for which the outcome (in the assay filed under Gallus gallus; in assay [2]) was inactive.
In assay [1], `Nc1ccc(S(N)(=O)=O)cc1` [SULFANILAMIDE] registered a Ki of 130 µM.
In assay [1], `N=C(N)NS(=O)(=O)c1ccc(N)cc1` [SULFAGUANIDINE] showed a Ki of 69 µM.
As a reminder, the Km is the concentration of substrate that gives half-maximal velocity. Take `Nc1ccc(C(=O)O)cc1`: the Km in assay [3] was 1.5 µM.
